Test results published in PubChem BioAssay (NCI).
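In this assay, cells in 96-well plates receive the compound at five concentrations for 48 hours. Endpoints are linearly interpolated between the surrounding concentrations. Abbreviation: GI50, concentration required for 50% inhibition of growth. TGI marks complete inhibition of growth.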

Columns and labels:
Assay in all cases: growth of human tumour cells (NCI), 48 h
[1] = system: HCT-15 colon
[2] = system: HOP-62 NSCLC
[3] = system: DU-145 prostate
[4] = system: LOX IMVI melanoma
[5] = system: T-47D breast
[6] = system: SK-MEL-2 melanoma
[7] = system: OVCAR-4 ovarian
[8] = system: UACC-257 melanoma
[9] = system: A498 renal
[10] = system: SK-OV-3 ovarian

SMILES | GI50 [1] | TGI [1] | GI50 [2] | TGI [2] | GI50 [3] | TGI [3] | GI50 [4] | TGI [4] | GI50 [5] | TGI [5] | GI50 [6] | TGI [6] | GI50 [7] | TGI [7] | GI50 [8] | TGI [8] | GI50 [9] | TGI [9] | GI50 [10] | TGI [10]
COc1ccc(S(=O)(=O)NCCNc2nccc(-c3c(-c4ccccc4)nc4sccn34)n2)cc1 | 2.42 µM | > 100 µM | 15.3 µM | > 100 µM | 3.37 µM | > 100 µM | 3.94 µM | > 100 µM | 3.17 µM | > 100 µM | 4.98 µM | > 100 µM | 3.62 µM | > 100 µM | 6.47 µM | > 100 µM | 1.16 µM | 8.9 µM | 4.18 µM | > 100 µM
C=C(CC1(CC(=C)c2ccc(C(=O)O)cc2)C(=O)N(C)C(=O)N(C)C1=O)c1ccc(C(=O)O)cc1 | > 100 µM | > 100 µM | 66.5 µM | > 100 µM | > 100 µM | > 100 µM | 80.8 µM | > 100 µM | 25.2 µM | > 100 µM | > 100 µM | > 100 µM | 23.2 µM | > 100 µM | 34.9 µM | > 100 µM | 53.2 µM | > 100 µM | 6.02 µM | 58.7 µM
CN1c2ccccc2C(=O)Nc2cnc(Cl)nc21 | – | > 100 µM | – | > 100 µM | – | > 100 µM | – | > 100 µM | – | > 100 µM | – | > 100 µM | – | > 100 µM | – | > 100 µM | – | > 100 µM | – | > 100 µM
O=c1[nH]c(-c2ccccn2)nc2sc3c(c12)CCCCCC3 | 2.35 µM | > 100 µM | 6.24 µM | > 100 µM | 6.73 µM | > 100 µM | 1.09 µM | > 100 µM | 5.54 µM | > 100 µM | > 100 µM | > 100 µM | 5.88 µM | > 100 µM | > 100 µM | > 100 µM | 1.31 µM | > 100 µM | > 100 µM | > 100 µM
CC(=O)N[C@@H]1CCC[C@H](C(=O)Nc2cc(-c3cnn4c3CC(C)(C)C4)c(Cl)cn2)C1 | 0.0225 µM | > 100 µM | < 0.0113 µM | > 100 µM | 0.0102 µM | > 100 µM | < 0.01 µM | > 100 µM | 0.0101 µM | 0.719 µM | 0.0121 µM | 0.041 µM | 0.0235 µM | 25.4 µM | 0.0227 µM | 12 µM | < 0.01 µM | 0.0313 µM | 0.0633 µM | > 100 µM
Cc1ccc(OCCCCCCNCCO)c(C)c1 | 15.8 µM | 33.8 µM | 15 µM | 30.8 µM | 16.7 µM | 30.6 µM | 15 µM | 29.7 µM | 11.7 µM | 30.2 µM | 19.8 µM | 37.6 µM | 13.6 µM | 28.8 µM | 14.2 µM | 29.6 µM | 3.48 µM | 17.7 µM | 15.6 µM | 29.8 µM
COc1ccc(N=C2NN=C(c3c[nH]c4ccccc34)CS2)cc1OC | 4.02 µM | > 100 µM | 12.7 µM | > 84.1 µM | 19.5 µM | > 87.7 µM | 6.1 µM | > 100 µM | 5.04 µM | > 73.3 µM | > 100 µM | > 100 µM | 16 µM | > 100 µM | 11.1 µM | > 56.6 µM | 4.43 µM | > 61.3 µM | 14.2 µM | > 100 µM
